Several values for one entry are separate records, joined by “and”; a condition that tells them apart may be missing. Identical values can stand only once. ± gives the expanded uncertainty stated by the source.
Legend:
[1] = Liquid, Vibrating tube method
[2] = xn = mol fraction of the nth substance listed; settings: Liquid, Vibrating tube method, x1 = 1

Row | Structure (SMILES) | mass density ([1]; 283.15 K, 100 kPa) | mass density ([1]; 283.15 K, 5000 kPa) | mass density ([1]; 283.15 K, 10000 kPa) | mass density ([1]; 283.15 K, 15000 kPa) | mass density ([1]; 283.15 K, 20000 kPa) | mass density ([1]; 298.15 K, 100 kPa) | mass density ([1]; 298.15 K, 5000 kPa) | mass density ([1]; 298.15 K, 10000 kPa) | mass density ([1]; 298.15 K, 15000 kPa) | mass density ([1]; 298.15 K, 20000 kPa) | mass density ([1]; 313.15 K, 100 kPa) | mass density ([1]; 313.15 K, 5000 kPa) | mass density ([1]; 313.15 K, 10000 kPa) | mass density ([1]; 313.15 K, 15000 kPa) | mass density ([1]; 313.15 K, 20000 kPa) | mass density ([1]; 328.15 K, 100 kPa) | mass density ([1]; 328.15 K, 5000 kPa) | mass density ([1]; 328.15 K, 10000 kPa) | mass density ([1]; 328.15 K, 15000 kPa) | mass density ([1]; 328.15 K, 20000 kPa) | also measured
1 | CCCO [propan-1-ol] | 810.9 ± 1 kg/m3 | 814.7 ± 1 kg/m3 | 818.1 ± 1 kg/m3 | 821.7 ± 1 kg/m3 | 824.9 ± 1 kg/m3 | 799 ± 1 kg/m3 | 803 ± 1 kg/m3 | 806.9 ± 1 kg/m3 | 810.6 ± 1 kg/m3 | 814.1 ± 1 kg/m3 | 786.8 ± 1 kg/m3 | 791.2 ± 1 kg/m3 | 795.3 ± 1 kg/m3 | 799.3 ± 1 kg/m3 | 803.1 ± 1 kg/m3 | 774.5 ± 1 kg/m3 | 779.1 ± 1 kg/m3 | 783.7 ± 1 kg/m3 | 787.8 ± 1 kg/m3 | 791.9 ± 1 kg/m3 | 
2 | CCO [ethanol] + C=CC(C)(O)CCC=C(C)C |  |  |  |  |  |  |  |  |  |  |  |  |  |  |  |  |  |  |  |  | mass density ([2]; 283.15 K, 100 kPa): 797.7 ± 1 kg/m3; mass density ([2]; 283.15 K, 5000 kPa): 801.8 ± 1 kg/m3; mass density ([2]; 283.15 K, 10000 kPa): 805.6 ± 1 kg/m3; mass density ([2]; 283.15 K, 15000 kPa): 809.6 ± 1 kg/m3; mass density ([2]; 283.15 K, 20000 kPa): 813.1 ± 1 kg/m3; mass density ([2]; 298.15 K, 100 kPa): 784.9 ± 1 kg/m3; mass density ([2]; 298.15 K, 5000 kPa): 789.3 ± 1 kg/m3; mass density ([2]; 298.15 K, 10000 kPa): 793.6 ± 1 kg/m3; mass density ([2]; 298.15 K, 15000 kPa): 797.7 ± 1 kg/m3; mass density ([2]; 298.15 K, 20000 kPa): 801.6 ± 1 kg/m3; mass density ([2]; 313.15 K, 100 kPa): 771.9 ± 1 kg/m3; mass density ([2]; 313.15 K, 5000 kPa): 776.8 ± 1 kg/m3; mass density ([2]; 313.15 K, 10000 kPa): 781.3 ± 1 kg/m3; mass density ([2]; 313.15 K, 15000 kPa): 785.7 ± 1 kg/m3; mass density ([2]; 313.15 K, 20000 kPa): 789.9 ± 1 kg/m3; mass density ([2]; 328.15 K, 100 kPa): 758.6 ± 1 kg/m3; mass density ([2]; 328.15 K, 5000 kPa): 763.8 ± 1 kg/m3; mass density ([2]; 328.15 K, 10000 kPa): 768.9 ± 1 kg/m3; mass density ([2]; 328.15 K, 15000 kPa): 773.6 ± 1 kg/m3; mass density ([2]; 328.15 K, 20000 kPa): 778.1 ± 1 kg/m3
3 | CCO [ethanol] | 797.7 ± 1 kg/m3 | 801.8 ± 1 kg/m3 | 805.6 ± 1 kg/m3 | 809.6 ± 1 kg/m3 | 813.1 ± 1 kg/m3 | 784.9 ± 1 kg/m3 | 789.3 ± 1 kg/m3 | 793.6 ± 1 kg/m3 | 797.7 ± 1 kg/m3 | 801.6 ± 1 kg/m3 | 771.9 ± 1 kg/m3 | 776.8 ± 1 kg/m3 | 781.3 ± 1 kg/m3 | 785.7 ± 1 kg/m3 | 789.9 ± 1 kg/m3 | 758.6 ± 1 kg/m3 | 763.8 ± 1 kg/m3 | 768.9 ± 1 kg/m3 | 773.6 ± 1 kg/m3 | 778.1 ± 1 kg/m3 | 
4 | C=CC(C)(O)CCC=C(C)C (configuration not stated) [3,7-dimethyl-1,6-octadien-3-ol] | 869.2 ± 1.1 kg/m3 and 869.5 ± 1.1 kg/m3 | 872.3 ± 1.1 kg/m3 and 872.6 ± 1.1 kg/m3 | 875.2 ± 1.2 kg/m3 and 875.7 ± 1.2 kg/m3 | 878.2 ± 1.2 kg/m3 and 878.7 ± 1.2 kg/m3 | 881 ± 1.2 kg/m3 and 881.5 ± 1.2 kg/m3 | 856.9 ± 1.1 kg/m3 and 857.3 ± 1.1 kg/m3 | 860.1 ± 1.1 kg/m3 and 860.6 ± 1.1 kg/m3 | 863.5 ± 1.2 kg/m3 and 863.9 ± 1.2 kg/m3 | 866.6 ± 1.2 kg/m3 and 867 ± 1.2 kg/m3 | 869.6 ± 1.2 kg/m3 and 870 ± 1.2 kg/m3 | 844.1 ± 1.1 kg/m3 and 844.5 ± 1.1 kg/m3 | 847.8 ± 1.1 kg/m3 and 848.2 ± 1.1 kg/m3 | 851.3 ± 1.1 kg/m3 and 851.6 ± 1.1 kg/m3 | 854.8 ± 1.2 kg/m3 and 855 ± 1.2 kg/m3 | 858.1 ± 1.2 kg/m3 and 858.4 ± 1.2 kg/m3 | 831.3 ± 1.1 kg/m3 and 831.7 ± 1.1 kg/m3 | 835.2 ± 1.1 kg/m3 and 835.6 ± 1.1 kg/m3 | 839.1 ± 1.1 kg/m3 and 839.5 ± 1.1 kg/m3 | 842.7 ± 1.2 kg/m3 and 843.1 ± 1.2 kg/m3 | 846.3 ± 1.2 kg/m3 and 846.7 ± 1.2 kg/m3 | mass density ([1]; 283.18 K, 15000 kPa): 878.7 ± 1.2 kg/m3; mass density ([1]; 328.18 K, 10000 kPa): 839.5 ± 1.1 kg/m3
5 | CC(C)O [propan-2-ol] + C=CC(C)(O)CCC=C(C)C |  |  |  |  |  |  |  |  |  |  |  |  |  |  |  |  |  |  |  |  | mass density ([2]; 283.15 K, 100 kPa): 793.7 ± 1 kg/m3; mass density ([2]; 283.15 K, 5000 kPa): 797.5 ± 1 kg/m3; mass density ([2]; 283.15 K, 10000 kPa): 801.3 ± 1 kg/m3; mass density ([2]; 283.15 K, 20000 kPa): 808.9 ± 1 kg/m3; mass density ([2]; 283.18 K, 15000 kPa): 805.2 ± 1 kg/m3; mass density ([2]; 298.15 K, 100 kPa): 781.2 ± 1 kg/m3; mass density ([2]; 298.15 K, 5000 kPa): 785.5 ± 1 kg/m3; mass density ([2]; 298.15 K, 10000 kPa): 789.7 ± 1 kg/m3; mass density ([2]; 298.15 K, 15000 kPa): 793.8 ± 1 kg/m3; mass density ([2]; 298.15 K, 20000 kPa): 797.6 ± 1 kg/m3; mass density ([2]; 313.15 K, 100 kPa): 768.1 ± 1 kg/m3; mass density ([2]; 313.15 K, 5000 kPa): 773 ± 1 kg/m3; mass density ([2]; 313.15 K, 10000 kPa): 777.5 ± 1 kg/m3; mass density ([2]; 313.15 K, 15000 kPa): 781.9 ± 1 kg/m3; mass density ([2]; 313.15 K, 20000 kPa): 786.1 ± 1 kg/m3; mass density ([2]; 328.15 K, 100 kPa): 754.4 ± 1 kg/m3; mass density ([2]; 328.15 K, 5000 kPa): 759.6 ± 1 kg/m3; mass density ([2]; 328.15 K, 15000 kPa): 769.5 ± 1 kg/m3; mass density ([2]; 328.15 K, 20000 kPa): 774 ± 1 kg/m3; mass density ([2]; 328.18 K, 10000 kPa): 764.8 ± 1 kg/m3
6 | CCCO [propan-1-ol] + C=CC(C)(O)CCC=C(C)C |  |  |  |  |  |  |  |  |  |  |  |  |  |  |  |  |  |  |  |  | mass density ([2]; 283.15 K, 100 kPa): 810.9 ± 1 kg/m3; mass density ([2]; 283.15 K, 5000 kPa): 814.7 ± 1 kg/m3; mass density ([2]; 283.15 K, 10000 kPa): 818.1 ± 1 kg/m3; mass density ([2]; 283.15 K, 15000 kPa): 821.7 ± 1 kg/m3; mass density ([2]; 283.15 K, 20000 kPa): 824.9 ± 1 kg/m3; mass density ([2]; 298.15 K, 100 kPa): 799 ± 1 kg/m3; mass density ([2]; 298.15 K, 5000 kPa): 803 ± 1 kg/m3; mass density ([2]; 298.15 K, 10000 kPa): 806.9 ± 1 kg/m3; mass density ([2]; 298.15 K, 15000 kPa): 810.6 ± 1 kg/m3; mass density ([2]; 298.15 K, 20000 kPa): 814.1 ± 1 kg/m3; mass density ([2]; 313.15 K, 100 kPa): 786.8 ± 1 kg/m3; mass density ([2]; 313.15 K, 5000 kPa): 791.2 ± 1 kg/m3; mass density ([2]; 313.15 K, 10000 kPa): 795.3 ± 1 kg/m3; mass density ([2]; 313.15 K, 15000 kPa): 799.3 ± 1 kg/m3; mass density ([2]; 313.15 K, 20000 kPa): 803.1 ± 1 kg/m3; mass density ([2]; 328.15 K, 100 kPa): 774.5 ± 1 kg/m3; mass density ([2]; 328.15 K, 5000 kPa): 779.1 ± 1 kg/m3; mass density ([2]; 328.15 K, 10000 kPa): 783.7 ± 1 kg/m3; mass density ([2]; 328.15 K, 15000 kPa): 787.8 ± 1 kg/m3; mass density ([2]; 328.15 K, 20000 kPa): 791.9 ± 1 kg/m3
7 | CC(C)O [propan-2-ol] | 793.7 ± 1 kg/m3 | 797.5 ± 1 kg/m3 | 801.3 ± 1 kg/m3 |  | 808.9 ± 1 kg/m3 | 781.2 ± 1 kg/m3 | 785.5 ± 1 kg/m3 | 789.7 ± 1 kg/m3 | 793.8 ± 1 kg/m3 | 797.6 ± 1 kg/m3 | 768.1 ± 1 kg/m3 | 773 ± 1 kg/m3 | 777.5 ± 1 kg/m3 | 781.9 ± 1 kg/m3 | 786.1 ± 1 kg/m3 | 754.4 ± 1 kg/m3 | 759.6 ± 1 kg/m3 |  | 769.5 ± 1 kg/m3 | 774 ± 1 kg/m3 | mass density ([1]; 283.18 K, 15000 kPa): 805.2 ± 1 kg/m3; mass density ([1]; 328.18 K, 10000 kPa): 764.8 ± 1 kg/m3

— the NIST ThermoML archive (doi:10.1021/je100581m)
